These results are taken from patent US20220354847A1, “THIAMINE THERAPY FOR FATTY LIVER ASSOCIATED DISEASES” (priority 2019, published 2022).

In data set [1] the test system is hepatic steatosis. To be noted: literature (Biomedical Reports 2013; Journal of Hepatology 2016); cited from earlier work.
Data set [2] relates to liver histology. To be noted: literature, cited from earlier work; for associated adverse effects: long-term treatment.
Data set [3] relates to hepatic alterations caused by a high-fat diet. The settings on record: mice; literature; cited from earlier work.
The test system of data set [4] is lambs grown on the HC diet. To be noted: within one week of treatment; saline-treated HC group 77.2 mg/dL.
Data set [5] has as its system liver gene expression.
The test system of data set [6] is circulating leukocytes gene expression. To be noted: FIG. 14A.
The test system of data set [7] is hepatic steatosis in lambs grown on the HC diet.

Regarding `N[C@@H](CC(=O)N1CCn2c(nnc2C(F)(F)F)C1)Cc1cc(F)c(F)cc1F` [Sitagliptin], the “effect on hepatic steatosis / liver fat” value in data set [1] is “ineffective”.

Consider vitamin E, for which the “effect on liver histology” value in data set [2] (biopsy-proven NASH patients) was “improve liver histology”. The associated adverse effects entry in data set [2] was “modest increase in the risk for prostate cancer”.

On to `O=C1CCC(N2C(=O)c3ccccc3C2=O)C(=O)N1` (stereo not drawn) [thalidomide], for which, in data set [3], the “hepatic alterations caused by a high-fat diet” value is “improvements”.

`Cc1ncc(C[n+]2csc(CCO)c2C)c(N)n1` [thiamine]: the blood glucose levels in data set [4] is 71.7 mg/dL. Further, the “liver expression of APOB” value in data set [5] (FIG. 13C) is “No effects”. Also, in data set [5] (FIG. 13D), the “liver expression of the energy-sensing axis and of the transporters of NEFA (CD36, SLC27A6, SLC27A5)” value was “No effect”. In data set [5] (FIG. 14B), the “liver gene expression of NFKB1, IL1B, CCL2 and IL8” value is “No significant alterations”. In data set [5] (FIG. 14C), the “liver expression of catalase” value was “did not affect”. Further, the “liver expression of TNF” value in data set [5] (P=0.005, FIG. 14B) is recorded as “lowered”. In addition, the “liver expression of superoxide dismutase 2 (SOD2)” value in data set [5] (P=0.02, FIG. 14C) is “increase”. Further, the “liver expression of genes coding for AMPK (PRKAA2), PGC-1α (PPARGC1A) and PPAR-α (PPARA)” value in data set [5] (THC vs HC) is listed as “did not affect”. For the same compound, the “Perilipin 2 transcripts in liver” value in data set [5] (THC vs HC, P=0.002, FIG. 13C) is given as “lowered Perilipin 2 transcripts substantially”. The “liver expression of SIRT1” value in data set [5] (between the treatments, FIG. 13A) is reported as “not different”. In addition, the “abundance of MTTP transcripts in liver” value in data set [5] (compared with untreated HC group, P=0.001) is on record as “increased”. In addition, in data set [5] (in vivo), the “liver expression of glutathione peroxidase 1 (GPX1)” value was “no detected treatment effects”. Moreover, in data set [5] (leukocyte and liver, FIG. 14 legend), the “inflammatory state increased by the HC diet (proinflammatory gene expression)” value was “partially alleviated”. Moreover, the “leukocyte expression of IL1B, TNF and IFNG” value in data set [6] is “No treatment effects”. Moreover, the “leukocyte expression of CXCL8” value in data set [6] (thiamine-treated animals, P=0.05) is “lower expression”. In data set [7] (HC vs LC and THC, FIG. 11B, 11D), the “hepatocellular steatosis (macro-vesicular or micro-vesicular, histology score 0 to 3)” value was “significantly increased in the HC compared to both the LC and THC groups”. Moreover, in data set [7] (THC group, HC diet + thiamine 300 mg/animal s.c. 3 then 5 times a week for the last 85 of 135 days, HC=8.1%, LC 3.8%, P<0.0001), the “hepatic steatosis (liver fat content, percentage of wet liver weight)” value was 4.8%. Further, the “hepatic index (liver weight/BW)” value in data set [7] (THC vs HC, FIG. 11C) was “no significant effect”.

`CN(C)C(=N)N=C(N)N` [metformin]: in data set [1], the “effect on hepatic steatosis / liver fat” value was “no effect”.

For the compound `CCc1ccc(CCOc2ccc(CC3SC(=O)NC3=O)cc2)nc1` (stereo not drawn) [pioglitazone], the associated adverse effects entry in data set [2] is listed as “weight gain”.
